For 120 molecules, melting point results are on record in a melting point compilation (Tetko et al.).

Each structure is given as a SMILES string.

The molecule `Clc1ccc(-c2cc3ncnc(Cl)c3s2)cc1` registered a melting point of 188 to 190 °C.

On to `O=C(O)c1csc(-c2ncccn2)n1`, for which the melting point fell in the range of 217 to 219 °C.

Turning to `N#CCc1cn(-c2ccccc2)nc1-c1ccc(Cl)cc1`, the melting point was 126 to 128 °C. On to `O=C(Nc1ccccc1C(F)(F)F)OCC(F)(F)F`, for which the melting point is 68 to 70 °C. The molecule `O=C(c1ccccc1F)N1CCC(O)CC1` returned a melting point of 104 to 106 °C. As for `Nc1nnc(Cc2ccccc2F)o1`, the melting point is 167 to 169 °C. On to `O=C(O)c1csc(S(=O)(=O)N2CCOCC2)c1`, for which the melting point lay in the range of 226 to 228 °C. For the molecule `O=c1cnc2ccccc2[nH]1`, the melting point fell in the range of 271 to 272 °C. As for `CN(C)C(=O)Sc1cnc2nc(C#N)c(C#N)n2c1`, the figure is 180 to 182 °C; as for `COC(=O)c1ccc(COc2ccccc2C=O)cc1`, 90 to 92 °C; as for `CC1CCCCN1S(=O)(=O)c1ccc(C(=O)O)cc1` (stereo not given), 201 to 205 °C.

In turn, `Cc1cccc(C(=O)O)c1-n1cccc1` registered a melting point of 127 to 129 °C. The molecule `Cc1nc2cc(N)ccc2n1C` had a melting point of 164 to 166 °C. In turn, `O=c1c2ccccc2nc(O)n1-c1ccccc1` registered a melting point of 217 to 220 °C. Take `CC1C=CC2C(=O)N(Cc3ccccc3)C(=O)C2C1C(=O)O` (stereo not given): the melting point fell in the range of 204 to 206 °C. As for `O=C(O)C1CCN(C2=NS(=O)(=O)c3ccccc32)CC1`, the figure is 279 to 281 °C. `Cc1ccc(S(=O)(=O)N(C)C)cc1N` had a melting point of 172 to 174 °C. Molecule `Nc1nnc(C2Cc3ccccc3O2)o1` (stereo not given) showed a melting point of 198 to 200 °C. `O=C(O)c1cccc(CN2CCCC2=O)c1` had a melting point of 145 to 155 °C. `NCc1ncc(-c2ccccc2)[nH]1`: the melting point fell in the range of 142 to 144 °C. In the case of `O=C(O)C1CC(=O)N(CCN2CCOCC2)C1` (stereo not given) it was 159 to 161 °C. `O=S1(=O)N=C(Cl)c2ccccc21`: the melting point is 121 to 123 °C.

Molecule `N#CC=C(Cl)c1cccc(OC(F)F)c1` registered a melting point of 45 to 47 °C. Take `CC(O)CNc1nc2ccccc2[nH]1` (stereo not given): the melting point lay in the range of 186 to 188 °C. The molecule `CC(=O)N1CCN(C(=O)CCC(=O)O)CC1` registered a melting point of 110 to 116 °C. Consider `N#Cc1cc(S(N)(=O)=O)ccc1F`, for which the melting point is 142 to 144 °C. Molecule `O=C(Nc1cccc(F)c1)C1CSCN1` (stereo not given) displayed a melting point of 222 to 224 °C. The molecule `Cc1nn(C2CCS(=O)(=O)C2)c(C)c1C=O` (stereo not given) had a melting point of 122 to 124 °C. `NC(=O)COc1cccc(CCl)c1` came in with a melting point of 114 to 116 °C. `O=C(O)CCCNS(=O)(=O)c1cccc(C(F)(F)F)c1`: the melting point was in the range of 152 to 155 °C. In turn, `CCOc1ccccc1-c1nn(C(C)(C)C)cc1C(=O)O` yielded a melting point of 207 to 209 °C. `NS(=O)(=O)c1nnc[nH]1` had a melting point of 224 to 226 °C. In turn, `CC(C)(C)OC(=O)Nc1csc(Br)c1` registered a melting point of 84 to 86 °C. Regarding `Nc1ccc(-c2nc3ccccc3[nH]2)cn1`, the melting point fell in the range of 352 to 354 °C. For `Cc1ccc(C(=O)O)c(Cl)c1C`, the melting point fell in the range of 153 to 155 °C.

Consider `Nc1ccccc1OCC(=O)N1CCOCC1`, for which the melting point was 111 to 113 °C. The molecule `CCOC(CC(N)=O)OCC` had a melting point of 51 to 53 °C. As for `COc1ccc(O)c(C(C)N)c1` (stereo not given), the melting point fell in the range of 123 to 125 °C. As for `CCCCc1ccc(C(=O)CCC(=O)O)cc1`, the figure is 113 to 115 °C; as for `O=C1NCCNC1c1ccc(C(F)(F)F)cc1` (stereo not given), 141 to 143 °C.

In turn, `Clc1nncc2ccoc12` displayed a melting point of 117 to 119 °C. Molecule `CN1CCN(Cc2cccc(N)c2)CC1` yielded a melting point of 78 to 80 °C.

`CC1=NNC(=O)C1CCN` (stereo not given) displayed a melting point of 229 to 231 °C.

On to `COC(=O)C(=O)NN`, for which the melting point was 115 to 117 °C. As for `Cc1cc2ncc(Br)cn2n1`, the figure is 137 to 139 °C; as for `CC(=O)N1CCCC(C(N)=O)C1` (stereo not given), 146 to 148 °C. `Cc1cc2occ(CC(=O)O)c2cc1C(C)C` registered a melting point of 141 to 143 °C.

On to `O=C(O)CNS(=O)(=O)c1ccc(N2CCCC2=O)cc1`, for which the melting point fell in the range of 130 to 132 °C. The molecule `Cc1nc(NN)c2cc(-c3ccccc3)sc2n1` yielded a melting point of 163 to 165 °C.

Take `Nc1cccc([N+](=O)[O-])c1C(=O)O`: the melting point lay in the range of 143 to 145 °C. The molecule `Cc1cc(C(=O)O)c2c(C)noc2n1` had a melting point of 233 to 235 °C. As for `O=C1CN(/C=C/c2ccccc2)C(=O)N1`, the melting point lay in the range of 224 to 226 °C. `O=S(=O)(c1cccc(F)c1)N1CCNCC1`: the melting point lay within 97 to 99 °C. With `COc1cc(Cl)ccc1S(N)(=O)=O`, the melting point was 169 to 171 °C.

As to `Cn1nc(C(=O)O)cc1C1CC1`, the melting point was 196 to 198 °C.

`CC1CCC(Cn2c(N)cc(=O)[nH]c2=O)CC1` (stereo not given) registered a melting point of 239 to 241 °C.

`CNC(=O)C1(C(=O)O)CCC1` gave a melting point of 144 to 146 °C.

In the case of `CCOC(=O)N1CCNC(=O)CC1`, the melting point was in the range of 103 to 105 °C. For `Cc1cc2c(Cl)nccc2o1`, the melting point was in the range of 38 to 40 °C. `Cc1ccc(/C=C/c2cc(C(=O)O)c3cc(Br)ccc3n2)cc1`: the melting point lay in the range of 306 to 308 °C. In turn, `CS(=O)(=O)N1CCc2cc(C(=O)O)ccc21` yielded a melting point of 230 to 232 °C. Turning to `CCC(C)n1c(SCC(=O)O)nnc1-c1ccccc1` (stereo not given), the melting point lay in the range of 155 to 157 °C. `c1cc2[nH]ncc2cc1NC1CN2CCC1CC2` (stereo not given): the melting point fell in the range of 192 to 194 °C.

As to `COC(=O)c1cc(C=O)c[nH]1`, the melting point fell in the range of 124 to 126 °C. Turning to `Nc1ccc(S(=O)(=O)N2CCCC(C(=O)O)C2)cc1` (stereo not given), the melting point was in the range of 195 to 197 °C.

`O=S(=O)(Cl)c1ccc2c(c1)S(=O)(=O)NC=N2`: the melting point is 247 to 249 °C.

Regarding `Cc1nn(-c2cncc3nnnn23)c(C)c1CC(=O)O`, the melting point was 173 to 175 °C. `N#Cc1cnn(-c2ccc(C(=O)O)cc2)c1N`: the melting point lay in the range of 289 to 291 °C.

As to `O=[N+]([O-])c1ccc(Cl)c(CCl)c1`, the melting point fell in the range of 61 to 63 °C. For the molecule `O=Cc1cnc(-c2ccsc2)s1`, the melting point lay in the range of 107 to 109 °C. Molecule `O=[N+]([O-])c1ncn(CCO)n1` came in with a melting point of 76 to 78 °C. In the case of `O=C(NCc1ccc(F)cc1)C1CCNCC1`, the melting point fell in the range of 139 to 141 °C. `NC(=O)C1CCN(c2ccccc2N)CC1` yielded a melting point of 199 to 201 °C. For `Clc1nccc(OCc2ccccc2)n1`, the melting point was in the range of 49 to 51 °C. In turn, `Sc1nnc(C2CC2)n1Cc1ccccc1` showed a melting point of 176 to 178 °C. The molecule `O=C(O)CCNS(=O)(=O)c1ccc(F)cc1` displayed a melting point of 123 to 127 °C.

`Cc1cccnc1NC1CCCCC1` yielded a melting point of 81 to 83 °C. In the case of `Cc1nnc2[nH]nc(N)c2c1C` it was 264 to 266 °C; in that of `CN(C)c1ccc(-n2ccnc2S)cc1`, 249 to 251 °C.

Molecule `CC(C)(C)OC(=O)N1CCc2ncc(N)cc2C1` came in with a melting point of 116 to 118 °C.

In the case of `COc1ccc(NS(=O)(=O)c2ccc(N3CCCCC3)c(N)c2)cc1`, the melting point lay within 111 to 113 °C. `NS(=O)(=O)c1c(Cl)cccc1Cl`: the melting point was 176 to 178 °C.

`CN(CC(=O)O)C(=O)c1cc(Cl)nnc1Cl` yielded a melting point of 175 to 177 °C. In the case of `NCCCNc1ccc(C(F)(F)F)cn1` it was 48 to 50 °C; in that of `CCC(=O)c1cc(F)cc(Br)c1`, 29 to 31 °C; in that of `CN(C)C(=O)c1cccnc1Cl`, 69 to 71 °C. With `NNc1cc(C(F)(F)F)nc(-c2ccncc2)n1`, the melting point lay in the range of 233 to 235 °C. `Sc1n[nH]c(-c2cccnc2)n1` had a melting point of 304 to 306 °C.

The molecule `Cc1noc(C2CC2)c1C(=O)O` displayed a melting point of 164 to 166 °C.

`CCNc1nc(C)c(C(=O)O)s1` displayed a melting point of 171 to 173 °C. In the case of `CN(C)S(=O)(=O)c1cccc(-c2nnc(S)n2N)c1` it was 200 to 202 °C; in that of `NS(=O)(=O)c1ccc2c(c1)CC(=O)N2`, 252 to 254 °C.

Molecule `Nc1c(Cl)ncnc1-n1cccn1` yielded a melting point of 110 to 112 °C. As for `COc1ccc(C(=O)N2CCCCCC2)cc1N`, the melting point was in the range of 133 to 135 °C.

Molecule `CC1CCC2(CC1)COC(=O)N2` (stereo not given) showed a melting point of 126 to 128 °C.

On to `CCOC(=O)c1ccc2nc(CCC(=O)O)c(=O)n(CC)c2c1`, for which the melting point lay in the range of 181 to 185 °C. In the case of `COc1ccc(Cl)c(N=C=O)c1` it was 38 to 40 °C; in that of `CC1=NN(c2ccc(Cl)c(Cl)c2)C(=O)C1`, 158 to 160 °C. `Brc1cccc(-c2nnco2)c1` showed a melting point of 74 to 76 °C.

The molecule `O=C(O)CC1SC(=Nc2ccccc2)NC1=O` (stereo not given) returned a melting point of 202 to 204 °C. In the case of `O=C(O)C1CNc2ccccc21` (stereo not given), the melting point lay in the range of 178 to 180 °C.

Molecule `COC(=O)c1sc2c(c1N)CCC(C(C)(C)C)C2` (stereo not given) returned a melting point of 153 to 155 °C.

`Cc1csc(=O)n1CCC(=O)O` displayed a melting point of 108 to 110 °C. As for `O=C1Nc2ccc(-c3ccccc3)cc2C1=O`, the figure is 214 to 216 °C. `O=C(O)C(Oc1ccccc1)c1ccccc1` (stereo not given) yielded a melting point of 103 to 105 °C. Turning to `O=C1CCCc2nc(-c3ccccc3F)sc21`, the melting point fell in the range of 153 to 155 °C.

As for `O=S(=O)(NCCOc1ncc(C(F)(F)F)cc1Cl)c1c(F)cccc1F`, the melting point is 110 to 112 °C. Molecule `CN(C)c1nc(Cl)c(C=O)s1` registered a melting point of 109 to 111 °C.

`O=C(O)CCC(NC(=O)c1ccccc1)C(=O)O` (stereo not given) had a melting point of 133 to 135 °C. Molecule `COc1ccccc1-c1ncc(C(=O)O)[nH]1` yielded a melting point of 219 to 221 °C. As to `CCC1Cc2c(Br)cccc2C(=O)N1` (stereo not given), the melting point was 101 to 103 °C.

For `O=C(O)c1cc(/C=C/c2ccc(F)cc2)nc2ccc(Br)cc12`, the melting point was in the range of 299 to 301 °C. `Nc1nc(-c2cc(Cl)sc2Cl)cs1` had a melting point of 144 to 146 °C.

`CSc1nc(NC(C)=O)n(C(C)=O)n1` returned a melting point of 226 to 228 °C.

`O=C(O)c1cc(-c2cccnc2)on1` came in with a melting point of 179 to 181 °C. In turn, `Sc1nnc(-c2cc3ccccc3o2)o1` returned a melting point of 249 to 251 °C. With `COc1ccc(C(=O)NC(C(=O)O)C(C)C)cc1` (stereo not given), the melting point lay within 163 to 165 °C. Take `CC(C)(C)NS(=O)(=O)CC(=O)O`: the melting point lay within 93 to 95 °C. In the case of `Sc1ccc(Cl)nn1`, the melting point lay within 148 to 150 °C. As for `O=C(Nc1ccc2[nH]ccc2c1)c1ccc(F)cc1Br`, the figure is 185 to 187 °C.

What is called melting point is the temperature, or range, at which the solid turns liquid.
